Data published in patent EP4603105A1, “PHARMACEUTICAL COMPOSITION CONTAINING CYCLIC COMPOUND HAVING SELECTIVE KRAS INHIBITORY EFFECT AGAINST HRAS AND NRAS” (CHUGAI SEIYAKU KABUSHIKI KAISHA, priority 2022, dated 2024).
Like-named read-outs stand apart in the source and are kept apart here.

Assays:
[1] = molecular target: GDP-bound KRAS wild-type protein (Homo sapiens, UniProt P01116); assay: Binding to KRAS by surface plasmon resonance (SPR), dissociation constant KD
In short: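 Recombinant RAS proteins bearing a biotinylated Avi tag and loaded with GDP served as the captured ligand, recaptured fresh every cycle. Binding responses were referenced to an uncoated surface and a buffer-only blank cycle. Dissociation constants were obtained by 1:1 model fitting at 30°C.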

[2] = molecular target: GDP-bound NRAS wild-type protein (Homo sapiens, UniProt P01111); assay: Binding to NRAS by surface plasmon resonance (SPR), KD and KD ratio to KRAS
In short: (§1)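 Each cycle, GDP-bound biotin-Avi RAS was captured (~100–300 RU), compound concentrations were injected low to high for 75 s each at 100 µL/min, then the chip was regenerated. Buffer: HBS pH 7.4, 10 mM MgCl2, 10 µM GDP, 1 mM DTT, 4% DMSO; 30°C. KD from a 1:1 binding model.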

[3] = molecular target: HRAS wild-type protein (Homo sapiens, UniProt P01112); assay: Binding to HRAS by surface plasmon resonance (SPR), KD and KD ratio to KRAS
In short: as §1

[4] = test system: human lung cancer strain NCI-H441; assay: NCI-H441 cell proliferation inhibitory activity (CellTiter-Glo, 4 days); assay type: cell-based; settings: read-out: NCl-H441 IC50
In short: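 Signal came from […] measured per well once the reagent was added. Beforehand, cells were cultured at 37°C and 5% carbon dioxide on a compound series serially diluted in dimethyl sulfoxide.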

[5] = ratio of KD for GDP-bound NRAS wild-type protein to KD for KRAS
[6] = ratio of KD for HRAS wild-type protein to KD for KRAS
[7] = Single Cycle Kinetics, 1:1 binding model
[8] = ratio of KD with respect to GDP-bound NRAS wild-type protein to KD with respect to KRAS
[9] = ratio of KD with respect to HRAS wild-type protein to KD with respect to KRAS
[10] = 50% proliferation inhibitory concentration, four days

GDP-bound NRAS wild-type protein, sequence (P01111 whole entry): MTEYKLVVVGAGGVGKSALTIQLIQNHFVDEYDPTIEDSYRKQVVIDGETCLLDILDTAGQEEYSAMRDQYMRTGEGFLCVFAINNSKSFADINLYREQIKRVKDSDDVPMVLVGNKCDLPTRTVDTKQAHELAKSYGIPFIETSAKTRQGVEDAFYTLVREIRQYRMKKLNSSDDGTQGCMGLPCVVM
GDP-bound KRAS wild-type protein, sequence (P01116 1-188 isoform P01116-2): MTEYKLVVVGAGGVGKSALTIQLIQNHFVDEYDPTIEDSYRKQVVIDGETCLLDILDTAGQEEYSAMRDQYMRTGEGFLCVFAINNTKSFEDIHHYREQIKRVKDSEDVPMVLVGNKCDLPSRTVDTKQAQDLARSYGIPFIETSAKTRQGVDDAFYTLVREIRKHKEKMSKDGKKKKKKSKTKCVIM
HRAS wild-type protein, sequence (P01112 whole entry): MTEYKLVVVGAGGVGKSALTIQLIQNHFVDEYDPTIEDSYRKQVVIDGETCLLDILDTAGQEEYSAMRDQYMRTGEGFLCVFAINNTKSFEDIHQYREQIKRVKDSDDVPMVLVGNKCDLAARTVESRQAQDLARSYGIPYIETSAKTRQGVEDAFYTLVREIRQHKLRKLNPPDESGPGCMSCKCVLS

Row | SMILES | Kd ([1]; Single Cycle Kinetics) | NRAS /KRAS [2, 5] | HRAS /KRAS [3, 6] | IC50 ([4]; NCI-H441 cells, 4 days) | Kd [1, 7] | NRAS /KRAS [2, 8] | HRAS /KRAS [3, 9] | IC50 [4, 10] | Kd ([1]; 1:1 binding model)
1 | CCCC[C@H]1C(=O)N[C@@H]([C@@H](C)CC)C(=O)N(C2CC2)CC(=O)N(C)[C@H]2C/C=C\CCN(C2=O)[C@@H](Cc2ccc(C(F)(F)F)cc2)C(=O)N(C)CC(=O)N[C@@H](CCc2ccc(C(F)(F)F)c(OC)c2)C(=O)N2C[C@H](OCC)C[C@H]2C(=O)OC2(CCC2)C(=O)N(C)[C@@H](C2CCCC2)C(=O)N(C)[C@H](C(=O)N(C)C)CC(=O)N1C [PP3366] | 1.1 nM | A (a compound having 10 or more and less than 20 is denoted as A) | A (a compound having 10 or more and less than 20 is denoted as A) | 34.3 nM | – | – | – | – | –
2 | CCCC[C@H]1C(=O)N[C@@H]([C@@H](C)CC)C(=O)N(C2CC2)CC(=O)N(C)[C@H]2C/C=C\CCN(C2=O)[C@@H](Cc2ccc(C)cc2)C(=O)N(C)CC(=O)N[C@@H](CCc2ccc(C(F)(F)F)c(OC)c2)C(=O)N2C[C@H](OCC)C[C@H]2C(=O)OC2(CCC2)C(=O)N(C)[C@@H](C2CCCC2)C(=O)N(C)[C@H](C(=O)N(C)C)CC(=O)N1C [PP3384] | 1.2 nM | A (a compound having 10 or more and less than 20 is denoted as A) | B (a compound having 3 or more and less than 10 is denoted as B) | 18.2 nM | – | – | – | – | –
3 | CCC[C@H]1C(=O)N[C@@H]([C@@H](C)CC)C(=O)N2CCC[C@H]2C(=O)N(C)[C@H]2C/C=C\CCN(C2=O)[C@@H](Cc2ccc(C(F)(F)F)cc2)C(=O)N(C)CC(=O)N[C@@H](CCc2ccc(C(F)(F)F)c(OC)c2)C(=O)N2CC[C@H](OC)[C@H]2C(=O)N(C)C2(CCC2)C(=O)N(C)[C@@H](C2CCCC2)C(=O)N(C)[C@H](C(=O)N(C)C)CC(=O)N1C [PP3241] | 0.31 nM | A (a compound having 10 or more and less than 20 is denoted as A) | B (a compound having 3 or more and less than 10 is denoted as B) | 10.5 nM | – | – | – | – | –
4 | C#CC[C@H]1C(=O)N[C@@H]([C@@H](C)CC)C(=O)N(C2CC2)CC(=O)N(C)[C@H]2C/C=C\CCN(C2=O)[C@@H](Cc2ccc(C(F)(F)F)cc2)C(=O)N(C)CC(=O)N[C@@H](CCc2ccc(C(F)(F)F)c(OC)c2)C(=O)N2C[C@H](OCC)C[C@H]2C(=O)N(C)C2(CCC2)C(=O)N(C)[C@@H](C2CCCC2)C(=O)N(C)[C@H](C(=O)N(C)C)CC(=O)N1C [PP3242] | 0.097 nM | A (a compound having 10 or more and less than 20 is denoted as A) | A (a compound having 10 or more and less than 20 is denoted as A) | 6 nM | – | – | – | – | –
5 | CCO[C@@H]1C[C@H]2C(=O)NC3(CCC3)C(=O)N(C)[C@@H](C3CCCC3)C(=O)N(C)[C@H](C(=O)N3CCOCC3)CC(=O)N(C)[C@@H](CC(F)F)C(=O)N[C@@H]([C@@H](C)CC)C(=O)N(C)CC(=O)N(C)[C@H]3C/C=C\CCN(C3=O)[C@@H](Cc3ccc(C(F)(F)F)cc3)C(=O)N(C)CC(=O)N[C@@H](CCc3cc(F)c(C(F)(F)F)c(F)c3)C(=O)N2C1 [PP1285] | – | – | – | – | 0.15 nM | AA (a compound having 20 or more is denoted as AA) | A (a compound having 10 or more and less than 20 is denoted as A) | 24.6 nM | –
6 | CCCO[C@@H]1C[C@H]2C(=O)NC3(CC(C)(C)C3)C(=O)N(C)[C@@H](C3CCCC3)C(=O)N(C)[C@H](C(=O)N(C)CC)CC(=O)N(C)[C@@H](COCC)C(=O)N[C@@H]([C@@H](C)CC)C(=O)N(C3CC3)CC(=O)N(C)[C@H]3C/C=C\CCN(C3=O)[C@@H](Cc3ccc(C)cc3)C(=O)N(C)CC(=O)N[C@@H](CCc3ccc(C(F)(F)F)c(OC)c3)C(=O)N2C1 [PP3466] | 0.97 nM | A (a compound having 10 or more and less than 20 is denoted as A) | B (a compound having 3 or more and less than 10 is denoted as B) | 39.8 nM | – | – | – | – | –
7 | CCC[C@H]1C(=O)N[C@@H](C2CCCC2)C(=O)N(C)CC(=O)N(C)[C@H]2C/C=C\CCN(C2=O)[C@@H](Cc2ccc(C)cc2)C(=O)N(C)CC(=O)N[C@@H](CCc2ccc(C(F)(F)F)c(OC)c2)C(=O)N2CC3(CC3)C[C@H]2C(=O)N(C)C2(CCC2)C(=O)N(C)[C@@H]([C@@H](C)CC)C(=O)N(C)[C@H](C(=O)N(C)C)CC(=O)N1C [PP3318] | 0.26 nM | A (a compound having 10 or more and less than 20 is denoted as A) | A (a compound having 10 or more and less than 20 is denoted as A) | 6.5 nM | – | – | – | – | –
8 | C#CC[C@H]1C(=O)N[C@@H]([C@@H](C)CC)C(=O)N(C)CC(=O)N(C)[C@H]2CC[C@@H](C)CN(C2=O)[C@@H](Cc2ccc(C(F)(F)F)cc2)C(=O)N(C)CC(=O)N[C@@H](CCc2ccc(C(F)(F)F)c(Cl)c2)C(=O)N2CCC[C@H]2C(=O)NC2(CCCC2)C(=O)N(C)[C@@H](C2CCCC2)C(=O)N(C)[C@H](C(=O)N(C)C)CC(=O)N1C [PP1340] | – | – | – | – | 0.081 nM | B (a compound having 3 or more and less than 10 is denoted as B) | B (a compound having 3 or more and less than 10 is denoted as B) | 10.9 nM | –
9 | CCCOC[C@H]1C(=O)N[C@@H]([C@@H](C)CC)C(=O)N(C)CC(=O)N(C)[C@H]2C/C=C\CCN(C2=O)[C@@H](CC2CCC(F)(F)CC2)C(=O)N(C)CC(=O)N[C@@H](CCc2cc(F)c(C(F)(F)F)c(F)c2)C(=O)N2C[C@@H](C)C[C@H]2C(=O)NC2(CC(C)(C)C2)C(=O)N(C)[C@@H](C(CC)CC)C(=O)N(C)[C@H](C(=O)N(C)C)CC(=O)N1C [PP2490] | – | AA (a compound having 20 or more is denoted as AA) | A (a compound having 10 or more and less than 20 is denoted as A) | 162 nM | – | – | – | – | 1.7 nM
10 | CCC[C@H]1C(=O)N[C@@H]([C@@H](C)CC)C(=O)N(C2CC2)CC(=O)N(C)[C@H]2C/C=C\CCN(C2=O)[C@@H](Cc2ccc(C)cc2)C(=O)N(C)CC(=O)N[C@@H](CCc2cc(F)c(C(F)(F)F)c(F)c2)C(=O)N2CC[C@H](OC)[C@H]2C(=O)N(C)C2(CCC2)C(=O)N(C)[C@@H](C2CCCC2)C(=O)N(C)[C@H](C(=O)N(C)C)CC(=O)N1C [PP3285] | 0.15 nM | A (a compound having 10 or more and less than 20 is denoted as A) | A (a compound having 10 or more and less than 20 is denoted as A) | 9.3 nM | – | – | – | – | –
11 | CCC[C@H]1C(=O)N[C@@H]([C@@H](C)CC)C(=O)N(C2CC2)CC(=O)N(C)[C@H]2C/C=C\CCN(C2=O)[C@@H](Cc2ccc(C)cc2)C(=O)N(C)CC(=O)N[C@@H](CCc2ccc(Cl)c(Cl)c2)C(=O)N2C[C@H](OC(C)C)C[C@H]2C(=O)NC2(CC(C)(C)C2)C(=O)N(C)[C@@H](C2CCCC2)C(=O)N(C)[C@H](C(=O)N(C)C)CC(=O)N1C [PP2571] | – | A (a compound having 10 or more and less than 20 is denoted as A) | A (a compound having 10 or more and less than 20 is denoted as A) | 76.1 nM | – | – | – | – | 1 nM
12 | CCC[C@H]1C(=O)N[C@@H](C2CCCC2)C(=O)N(C)CC(=O)N(C)[C@H]2C/C=C\CCN(C2=O)[C@@H](Cc2ccc(C)cc2)C(=O)N(C)CC(=O)N[C@@H](CCc2ccc(C(F)(F)F)c(Cl)c2)C(=O)N2CC3(CC3)C[C@H]2C(=O)NC2(CCC2)C(=O)N(C)[C@@H](C2CCCC2)C(=O)N(C)[C@H](C(=O)N(C)C)CC(=O)N1C [PP3444] | 0.19 nM | AA (a compound having 20 or more is denoted as AA) | A (a compound having 10 or more and less than 20 is denoted as A) | 13.6 nM | – | – | – | – | –
13 | CCC[C@H]1C(=O)N[C@@H]([C@@H](C)CC)C(=O)N(C)CC(=O)N(C)[C@H]2C/C=C\CCN(C2=O)[C@@H](Cc2ccc(C)cc2)C(=O)N(C)CC(=O)N[C@@H](CCc2ccc(C(F)(F)F)c(Cl)c2)C(=O)N2CC3(CC3)C[C@H]2C(=O)NC2(CCC2)C(=O)N(C)[C@@H](C2CCCC2)C(=O)N(C)[C@H](C(=O)N(C)C)CC(=O)N1C [PP3442] | 0.083 nM | A (a compound having 10 or more and less than 20 is denoted as A) | B (a compound having 3 or more and less than 10 is denoted as B) | 7.7 nM | – | – | – | – | –
14 | CC[C@H](C)[C@@H]1NC(=O)[C@H](CC2CCC2)N(C)C(=O)C[C@@H](C(=O)N(C)C)N(C)C(=O)[C@H](C2CCCC2)N(C)C(=O)C2(CCCC2)NC(=O)[C@@H]2CCCN2C(=O)[C@H](CCc2ccc(C(F)(F)F)c(Cl)c2)NC(=O)CN(C)C(=O)[C@H](Cc2ccc(C(F)(F)F)cc2)N2C[C@H](C)CC[C@@H](C2=O)N(C)C(=O)CN(C)C1=O [PP1342] | – | – | – | – | 0.091 nM | B (a compound having 3 or more and less than 10 is denoted as B) | B (a compound having 3 or more and less than 10 is denoted as B) | 5 nM | –
15 | CCCO[C@@H]1C[C@H]2C(=O)NC3(CC(C)(C)C3)C(=O)N(C)[C@@H](C3CCCC3)C(=O)N(C)[C@H](C(=O)N(C)CC)CC(=O)N(C)[C@@H](COCC)C(=O)N[C@@H]([C@@H](C)CC)C(=O)N3C[C@@H](C)C[C@H]3C(=O)N(C)[C@H]3C/C=C\CCN(C3=O)[C@@H](Cc3ccc(C)cc3)C(=O)N(C)CC(=O)N[C@@H](CCc3ccc(C(F)(F)F)c(Cl)c3)C(=O)N2C1 [PP3464] | 4 nM | A (a compound having 10 or more and less than 20 is denoted as A) | A (a compound having 10 or more and less than 20 is denoted as A) | 162 nM | – | – | – | – | –
